Counter-ions that a name gives are not always drawn.
Assays:
[1] = tested on: maltose/trehalose converting enzymes; conditions: one mM; cited from earlier work
[2] = in vivo, po
Description: In accordance with the method as reported by H. Atsuji et al. in "Journal of Clinical Nutrition", Vol.41, No.2, pp.200-208 (1972), 30 g of the saccharide powder rich in trehalulose with a purity of 98%, d.s.b., in Experiment 8 was prepared into a 20 w/v % aqueous solution which was then orally administered to 3 healthy male volunteers, and their blood were sampled at a prescribed time interval, followed by assaying the blood sugar- and insulin-levels. As a control glucose was used.

[3] = biological target: α-glucosidase from yeast (Saccharomyces cerevisiae, UniProt P53341); experiment: Hydrolysis by enzyme: α-glucosidase; type: biochemical; conditions: into glucose and fructose
Description: (§1) To identify the substance "X", the following confirmation tests were conducted using a high purity saccharide powder containing trehalulose prepared in Experiment 8: […]

[4] = tested on: dd-strain mice; experiment: Acute toxicity test; type: in vivo; conditions: oral, 7-week-old, higher dose test impossible
From the text: No mouse died up to a dose of 15 g/kg mouse by weight and a higher dose test was impossible. Thus the toxicity of the saccharide is extremely low.

[5] = biological target: T1, invertase from yeast (Saccharomyces cerevisiae, UniProt P00724); experiment: Hydrolysis by enzyme: invertase; type: biochemical
T1 sequence (P00724 20-532): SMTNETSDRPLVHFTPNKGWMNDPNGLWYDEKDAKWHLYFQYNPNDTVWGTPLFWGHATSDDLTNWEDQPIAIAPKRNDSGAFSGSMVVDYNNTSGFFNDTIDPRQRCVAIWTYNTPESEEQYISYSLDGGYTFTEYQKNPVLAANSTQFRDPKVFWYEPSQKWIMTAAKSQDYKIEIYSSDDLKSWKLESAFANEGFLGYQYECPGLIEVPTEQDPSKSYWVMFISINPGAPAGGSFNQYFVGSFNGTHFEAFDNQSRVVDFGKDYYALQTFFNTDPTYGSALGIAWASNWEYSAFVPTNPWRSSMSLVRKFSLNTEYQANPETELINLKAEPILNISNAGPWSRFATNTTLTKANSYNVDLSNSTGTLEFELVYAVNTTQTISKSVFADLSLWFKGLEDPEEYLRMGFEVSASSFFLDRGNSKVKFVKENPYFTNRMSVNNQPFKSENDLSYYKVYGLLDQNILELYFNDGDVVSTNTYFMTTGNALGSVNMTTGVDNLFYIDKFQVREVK
Description: as §1

Chain of α-glucosidase from yeast (P53341 whole entry): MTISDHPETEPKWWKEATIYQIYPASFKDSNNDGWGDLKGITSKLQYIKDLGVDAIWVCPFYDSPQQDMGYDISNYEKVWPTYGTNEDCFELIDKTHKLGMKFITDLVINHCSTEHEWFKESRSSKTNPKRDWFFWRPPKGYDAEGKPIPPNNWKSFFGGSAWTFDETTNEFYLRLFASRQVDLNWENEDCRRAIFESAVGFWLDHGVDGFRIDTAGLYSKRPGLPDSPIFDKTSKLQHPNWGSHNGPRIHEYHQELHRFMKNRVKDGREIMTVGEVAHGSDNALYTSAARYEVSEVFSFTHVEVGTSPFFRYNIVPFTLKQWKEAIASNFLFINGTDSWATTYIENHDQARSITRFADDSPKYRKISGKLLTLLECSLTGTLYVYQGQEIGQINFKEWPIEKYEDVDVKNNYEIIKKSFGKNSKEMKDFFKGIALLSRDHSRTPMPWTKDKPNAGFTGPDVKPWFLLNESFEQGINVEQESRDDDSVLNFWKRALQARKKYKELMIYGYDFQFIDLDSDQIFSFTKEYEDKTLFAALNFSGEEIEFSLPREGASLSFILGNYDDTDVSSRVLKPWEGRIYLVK

In the case of `[Cu+2]` [Cu^++], the “Inhibition of enzyme activity” value [1] is given as “inhibited”.
For `[Hg+2]` [Hg^++], the “Inhibition of enzyme activity” value [1] is given as “inhibited”.
For `O=C(CO[C@H]1O[C@H](CO)[C@@H](O)[C@H](O)[C@H]1O)[C@@H](O)[C@H](O)[C@H](O)CO` [Trehalulose, 1-O-α-D-glucopyranosyl-D-fructose], the “Time of highest blood sugar-level after the administration” value [2] was 0.5 to 1 h, the “Time of highest insulin-level after the administration” value [2] was 0.5 to 1 h and the “Hydrolysis by α-glucosidase from yeast” value [3] was “Hydrolyzed”. The “Acute toxicity: lethal dose (no mouse died up to this dose)” value [4] was over 15000 mg/kg and the “Hydrolysis by an invertase from yeast” value [5] was “Not hydrolyzed”.
For `NC(CO)(CO)CO` [Tris-HCl buffer], the “Inhibition of enzyme activity” value [1] is listed as “inhibited”.
